Measurements taken from US7160729B2, “Method for detecting diseases that are associated with defects of cystic fibrosis transmembrane conductance regulator (CFTR) protein” (priority 2002, dated 2007).
“Also recorded” adds a separate entry of the source.

Tests used:
[1] = system: blood cells; CFTR dependent ion channels (SDAC); assay: Hemolysis test of blood cells in 155 mM KCl medium with sDIDS activation of CFTR dependent ion channels; assay type: cell-based, human
Source text: This embodiment of the invention is based on the idea of evoking a lysis of the non-defective blood cells through activation of certain ion channels of the non-defective blood cells, where through anions flow into the non defective cell, for example: Iodide (I—), bromide (Br—), chloride (Cl—), fluoride (F—), gluconate (dextronic acid-anion), rhodanate (SCN—), and taurine. In defective blood cells these CFTR dependent ion channels don't exist or are not activatable. […] Then no positive pressure can build up in the cell; the blood cells with defective CFTR, especially the blood cells of CF Patients are not subject to lysis.
Since this CFTR dependent ion channel in non-defective blood cells allows the passage of anions such as for example: iodide, bromide, chloride, fluoride, gluconate and rhodanate as well as taurine, the differentiation between defective and non-defective blood cells can also take place in 155 mm solutions that contain iodide, bromide, fluoride, gluconate, rhodanate or taurine.
This embodiment is carried out analogously to the example mentioned above, only the blood cells are resuspended in a solution consisting of 155 mM KCl, 10 mM HEPES-Puffer (pH 7.4) and 100 μM sDIDS. This solution is incubated for 60 min under agitation at 37° C. and afterwards the released hemoglobin in the solution is determined.
Through the selected conditions of the preferred embodiment of the method according to the invention, chloride ions flow into non-defective blood cells via the anion channel activated by sDIDS into the blood cell. That leads to the accumulation of chloride ions in the blood cell and the water influx associated ion influx leads the good blood cell to burst. The hemolysis can be detected photometrically. This procedure may also be carried out with 10 mM HEPES-buffered solution (pH 7,4), that contains 155 mM iodide, bromide, fluoride, gluconate, or rhodanate as anions.

[2] = system: Calu-3 cells (human respiratory tract epithelium cell line); assay: Patch-clamp, whole-cell configuration; assay type: cell-based; settings: Calu-3, whole-cell, -90 to +10 mV
Procedure: During the experimental development of the test, it is shown that the observed reaction of the red blood cells can not be explained by the mechanisms known in the literature. The blood cell reactions are only explainable by the existence of a channel proteins, which is not yet known in literature.
In the whole-cell-configuration of the patch-clamp technology, the transmembrane current of a cell is measured with a pre-determined potential. The endocellular potential was maintained for 0.5 seconds in each case at values between −90 to +10 mV and increased in 10 mV intervals (8.d). The currents arising in a cell with this voltage range are presented in 8a–8c. In 8a, the base current of an untreated cell is shown (control). Through treatment with sDIDS, the conductivity of the cytomembrane of this cell increases together with the current (8b). After sDIDS was removed from the experiment (post control), the conductivity of the cytomembrane of this cell decreases, together with the current (8c). In 8e, the current is plotted against the applied potential, so that the slope of the curve is a measurement of the conductivity.

[3] = aqueous solution, room temperature; cited from earlier work
[4] = system: blood cells (reticulocytes and young erythrocytes); CFTR dependent ATP release; assay: Hemolysis test of blood cells in 155 mM KCl medium with Gd3+ blockade of CFTR dependent volume regulation; assay type: cell-based, human
Source text: A non-defective cell is able to control and regulate its cell volume by interlinking mechanisms during the influx and the efflux of ions and water under physiological conditions. In non-defective blood cells, after application of a 155 mm potassium chloride medium chloride flows into the cell, inter alia through the CFTR. In one embodiment, the invention is based on the idea to inhibit the regulatory volume decrease (RVD) by influencing—for example by blockade—the CFTR-dependent ATP-transporting channels expressed in the cytomembrane. […] This is especially the case with CF blood cells, which due to the CFTR defect have no influx of chloride ions and whose RVD is independent of CFTR. Therefore, no positive pressure can build up in the cell; the blood cells with defective ion channels, especially the blood cells of CF patients undergo no lysis.
In patients suffering from mucoviscidosis with a homozygous ΔF508 mutation, the CFTR is not in the cytomembrane. With heterozygous mutations and other mutations than ΔF508, small quantities of functional CFTR can be in the membrane that transport chloride and are involved in volume regulation. The quantity of the functional CFTR molecules in the cytomembrane is inversely proportional to the severity of the illness. […] The contribution of the CFTR dependent RVD to the entire RVD is proportional to the quantity of the functional CFTR molecules within the membrane. […] Because the quantity of the functional CFTR molecules in the cytomembrane is inversely proportional to the severity of the illness in mucoviscodosis patients, the degree of the hemolysis after blockade of the CFTR dependent RVD is a measurement for the severity of the illness.
In accordance with the invention, first blood cells are extracted from whole blood by centrifugation. […] This solution is incubated for 60 min under agitation at 37° C. and afterwards the released hemoglobin in the solution is determined. […] The hemolysis is determined by visual examination and is quantified by absorption measurement with a wave length of 546 nm. […]

## Nc1ccc(C=Cc2ccc(N=C=S)cc2S(=O)(=O)O)c(S(=O)(=O)O)c1 [sDIDS, 4-amino-4′-isothiocyanato-stilbene-2,2′-disulfonic acid]
[1]; blood cells of CF patients
  activation of anion conductivity (iodide, bromide, chloride, fluoride, gluconate, rhodanate, taurine): no conductivity
[1]; blood of 48 CF patients
  degree of hemolysis after sDIDS application: only a slight increase
[1]; blood of 148 healthy volunteers
  degree of hemolysis after addition of sDIDS: unambiguous increase
[1]; umbilical cord blood of 82 newborns
  degree of hemolysis after addition of sDIDS: unambiguous increase
[2]
  conductivity of the cytomembrane / current after removal (post control): decreases
  conductivity of the cytomembrane / current during treatment: reversible activatibility of a conductivity; also recorded: increases

## Nc1ccc(CCc2ccc(N=C=S)cc2S(=O)(=O)O)c(S(=O)(=O)[O-])c1.[Na+] [4-amino-4′isothiocyanato-dihydrostilbene-2,2′-disulfonic acid, Na^+-salt]
[1]
  behaviour compared with sDIDS: behaves like sDIDS

## O=S(=O)([O-])c1cc(N=C=S)ccc1C=Cc1ccc(N=C=S)cc1S(=O)(=O)[O-].[Na+].[Na+] [DIDS, 4,4′-diisothiocyanato-stilbene-2,2′-disulfonic acid, sodium salt]
[3]
  time of hydrolysis to 4-amino-4′-isothiocyanatostilbene-2,2′-disulfonic acid: within a week

## [Cl][Gd]([Cl])[Cl] [Gd^3+, gadolinium chloride]
[4]; blood of 22 CF patients
  degree of hemolysis after Gd^3+ application: only a slight increase
[4]; blood of 87 healthy volunteers
  degree of hemolysis after addition of Gd^3+: unambiguous increase
[4]; umbilical cord blood of 59 newborns
  degree of hemolysis after addition of Gd^3+: unambiguous increase

## CC(=O)Nc1ccc(C=Cc2ccc(N=C=S)cc2S(=O)(=O)O)c(S(=O)(=O)O)c1 [SITS, 4-acetamido-4′-isothiocyanato-stilbene-2,2′-disulfonic acid]
[3]
  time of hydrolysis to 4-amino-4′-isothiocyanatostilbene-2,2′-disulfonic acid: within a week
